In US7537911B2, “ATM related kinase, ATX, nucleic acids encoding same and methods of use” (Burnham Institute for Medical Research, priority 2002, dated 2009):

Tests used:
p53 = p53 Ser-15 phosphorylation and p53 accumulation (immunoblot); type: cell-based, human
From the text: A major mediator of stress-induced signaling in mammalian cells is the tumor suppressor protein, p53 (Ko and Prives, Genes and Development 10:1054-1072, (1996); Ryan et al., Curr. Opin. Cell Biol. 13:332-337 (2001)). ATX phosphorylates p53 on Ser-15 (FIG. 1C), a site implicated in the regulation of p53 stability and transcriptional activity (Dumaz and Meek, Curr. Opin. Cell Biol. 13:225-231 (1999); Zhang and Xiong, Science 292:1910-1915 (2001)). Therefore, the possibility that these two proteins are functionally linked during cellular stress responses was investigated. U2OS cells were transiently transfected with a HA-ATXWT or HA-ATXKI expression plasmid, together with a GFP-encoding plasmid to allow for FACS-based enrichment of the transfected cells. The GFP+ cells were then examined for IR-induced stabilization of p53, as well as for specific phosphorylation of this protein on Ser-15. […] In contrast, overexpression of ATXWT enhanced both of these responses in cells exposed to IR.
The recognition of UV light-induced DNA damage occurs primarily during S phase, when pyrimidine dimers and other bulky lesions interfere with replication fork progression (Friedberg, DNA Repair and Mutagenesis (Washington, D.C., ASM Press) (1995); Lindahl and Wood, Cell 103:1121-1131 (1999)).
In order to further define the potential linkage between DNA replicational stress and ATX, the response of AS-treated cells to 5-fluorouracil (5-FU), an S-phase specific cytotoxic agent was examined (Danenberg et al., Seminars in Oncology. 26:621-631 (1999); Grem, Investigational New Drugs 18:299-313 (2000)).
Changes in phosphorylation at Ser-15 are typically accompanied by alterations in the expression of the p53 protein, which complicates the interpretation of results obtained by immunoblotting of whole cell extracts with phospho-Ser-15-specific antibodies. In order to confirm that reduced ATX expression interferes with stress-induced Ser-15 phosphorylation, U2OS cells were transfected with either the S or AS oligonucleotide, and then were pretreated with the proteasome inhibitor, LLnV, to stabilize p53. In the presence of LLnV, the p53 level in each test population was relatively unaffected by UV exposure (data not shown). However, the ratio of phospho-Ser-15 to total p53 protein was increased by UV irradiation of both the mock-transfected and S oligonucleotide-treated cells.

ATX [1] = biological target: T1, ATX (Homo sapiens, UniProt Q96Q15); assay: Immune complex kinase assay, immunoprecipitated HA-ATXWT, GST-p53 1-70 substrate; type: biochemical; conditions: pretreatment of immunoprecipitated HA-ATXWT; GST-p53 1-70 phosphorylation; read-out: drug concentration required for 50% inhibition (IC50) of ATX activity in vitro
T1 construct: expressed in transfected cells; host or cells: HEK 293T, pcDNA3.1, immunoprecipitated with anti-HA antibody
T1 sequence (Q96Q15 141-3661 S144C): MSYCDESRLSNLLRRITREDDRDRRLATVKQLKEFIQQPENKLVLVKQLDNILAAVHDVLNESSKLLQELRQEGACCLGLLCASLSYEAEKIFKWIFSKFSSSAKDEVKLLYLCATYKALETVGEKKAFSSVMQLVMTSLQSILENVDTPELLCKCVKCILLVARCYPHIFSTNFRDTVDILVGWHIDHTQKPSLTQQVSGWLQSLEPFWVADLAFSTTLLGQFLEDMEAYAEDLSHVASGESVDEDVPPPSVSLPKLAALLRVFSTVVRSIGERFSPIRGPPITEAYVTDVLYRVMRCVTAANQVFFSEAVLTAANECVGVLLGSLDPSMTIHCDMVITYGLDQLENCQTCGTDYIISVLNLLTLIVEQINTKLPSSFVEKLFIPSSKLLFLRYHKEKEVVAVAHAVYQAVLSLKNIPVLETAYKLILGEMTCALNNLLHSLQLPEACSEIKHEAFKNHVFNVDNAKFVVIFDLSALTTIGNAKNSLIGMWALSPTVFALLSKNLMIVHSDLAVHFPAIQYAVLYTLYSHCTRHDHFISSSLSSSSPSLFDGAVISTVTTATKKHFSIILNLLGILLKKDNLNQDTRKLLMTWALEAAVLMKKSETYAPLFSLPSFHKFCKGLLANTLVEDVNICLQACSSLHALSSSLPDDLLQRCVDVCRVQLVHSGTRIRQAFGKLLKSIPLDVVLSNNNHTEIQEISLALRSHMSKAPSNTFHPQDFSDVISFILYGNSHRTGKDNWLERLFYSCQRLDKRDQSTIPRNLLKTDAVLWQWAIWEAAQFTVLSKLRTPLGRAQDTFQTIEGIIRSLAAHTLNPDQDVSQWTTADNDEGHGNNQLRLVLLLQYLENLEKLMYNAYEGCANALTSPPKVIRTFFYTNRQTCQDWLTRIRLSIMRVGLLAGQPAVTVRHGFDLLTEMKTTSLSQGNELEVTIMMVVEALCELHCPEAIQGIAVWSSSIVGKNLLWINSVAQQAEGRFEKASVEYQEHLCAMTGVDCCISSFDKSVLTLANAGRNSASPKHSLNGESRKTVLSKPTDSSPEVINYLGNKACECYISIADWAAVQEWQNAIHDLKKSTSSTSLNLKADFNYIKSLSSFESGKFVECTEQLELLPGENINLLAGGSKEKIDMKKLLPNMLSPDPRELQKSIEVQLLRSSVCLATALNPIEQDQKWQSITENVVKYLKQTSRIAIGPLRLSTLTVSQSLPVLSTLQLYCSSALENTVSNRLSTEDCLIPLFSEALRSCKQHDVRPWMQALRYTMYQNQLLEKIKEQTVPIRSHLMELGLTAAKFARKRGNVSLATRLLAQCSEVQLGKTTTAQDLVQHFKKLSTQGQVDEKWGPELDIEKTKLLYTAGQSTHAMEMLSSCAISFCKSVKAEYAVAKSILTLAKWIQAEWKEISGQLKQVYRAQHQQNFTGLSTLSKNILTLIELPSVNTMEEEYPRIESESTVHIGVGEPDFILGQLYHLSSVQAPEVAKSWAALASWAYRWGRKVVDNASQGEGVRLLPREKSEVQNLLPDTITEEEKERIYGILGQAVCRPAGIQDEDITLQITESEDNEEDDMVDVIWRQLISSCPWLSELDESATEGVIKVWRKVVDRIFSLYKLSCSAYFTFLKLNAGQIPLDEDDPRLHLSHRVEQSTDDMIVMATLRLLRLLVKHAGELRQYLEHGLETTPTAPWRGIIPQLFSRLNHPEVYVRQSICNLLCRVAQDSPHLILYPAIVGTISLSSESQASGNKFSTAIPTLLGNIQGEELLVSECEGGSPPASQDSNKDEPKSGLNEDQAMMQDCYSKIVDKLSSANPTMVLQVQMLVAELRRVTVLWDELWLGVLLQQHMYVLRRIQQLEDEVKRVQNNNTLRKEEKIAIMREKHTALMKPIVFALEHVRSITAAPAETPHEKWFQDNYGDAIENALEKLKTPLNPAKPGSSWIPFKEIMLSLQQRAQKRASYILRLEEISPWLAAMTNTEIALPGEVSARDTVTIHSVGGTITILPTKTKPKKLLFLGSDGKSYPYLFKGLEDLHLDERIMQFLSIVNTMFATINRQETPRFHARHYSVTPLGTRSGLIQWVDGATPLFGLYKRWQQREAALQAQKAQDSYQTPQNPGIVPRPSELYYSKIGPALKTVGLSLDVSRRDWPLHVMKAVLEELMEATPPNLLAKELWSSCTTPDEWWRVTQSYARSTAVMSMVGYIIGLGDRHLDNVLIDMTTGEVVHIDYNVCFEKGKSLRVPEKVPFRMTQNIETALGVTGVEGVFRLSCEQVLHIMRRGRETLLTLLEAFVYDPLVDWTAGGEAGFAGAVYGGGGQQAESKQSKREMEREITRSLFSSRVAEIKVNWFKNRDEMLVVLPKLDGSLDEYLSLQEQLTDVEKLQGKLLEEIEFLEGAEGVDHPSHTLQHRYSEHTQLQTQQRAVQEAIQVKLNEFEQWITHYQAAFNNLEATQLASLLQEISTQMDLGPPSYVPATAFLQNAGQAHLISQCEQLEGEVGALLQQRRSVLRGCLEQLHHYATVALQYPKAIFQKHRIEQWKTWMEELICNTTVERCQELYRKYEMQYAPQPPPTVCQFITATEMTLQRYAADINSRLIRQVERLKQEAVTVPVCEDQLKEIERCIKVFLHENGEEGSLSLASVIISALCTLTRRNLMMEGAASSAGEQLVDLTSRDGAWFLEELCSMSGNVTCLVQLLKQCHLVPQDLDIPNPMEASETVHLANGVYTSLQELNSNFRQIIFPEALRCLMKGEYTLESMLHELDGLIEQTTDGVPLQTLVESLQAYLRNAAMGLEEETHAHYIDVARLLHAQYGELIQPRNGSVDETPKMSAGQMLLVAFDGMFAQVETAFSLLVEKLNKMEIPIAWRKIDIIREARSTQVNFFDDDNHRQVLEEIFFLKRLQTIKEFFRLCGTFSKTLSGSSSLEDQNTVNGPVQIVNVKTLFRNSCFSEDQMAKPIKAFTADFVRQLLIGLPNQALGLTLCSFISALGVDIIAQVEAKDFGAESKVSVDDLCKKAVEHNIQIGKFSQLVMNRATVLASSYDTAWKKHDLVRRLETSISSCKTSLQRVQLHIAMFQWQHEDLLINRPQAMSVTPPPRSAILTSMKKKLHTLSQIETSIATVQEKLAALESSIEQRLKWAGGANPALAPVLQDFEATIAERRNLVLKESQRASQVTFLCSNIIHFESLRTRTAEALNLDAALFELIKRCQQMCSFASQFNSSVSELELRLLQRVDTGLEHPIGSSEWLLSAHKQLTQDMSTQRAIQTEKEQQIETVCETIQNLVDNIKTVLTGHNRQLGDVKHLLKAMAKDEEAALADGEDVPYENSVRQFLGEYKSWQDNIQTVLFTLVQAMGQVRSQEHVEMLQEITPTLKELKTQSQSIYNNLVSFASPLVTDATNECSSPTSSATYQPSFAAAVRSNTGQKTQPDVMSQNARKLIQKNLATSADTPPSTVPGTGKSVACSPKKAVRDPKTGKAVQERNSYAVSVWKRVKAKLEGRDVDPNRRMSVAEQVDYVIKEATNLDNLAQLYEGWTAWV

U2OS cells [2] = assay: Clonogenic survival assay of oligonucleotide-transfected cells; type: cell-based, human; conditions: for reduction of basal level of colony outgrowth (basal clonogenic activity): non-irradiated, 10 days in culture
U2OS cells [3] = assay: Cell-cycle distribution by flow cytometry; type: cell-based, human; conditions: for cell-cycle distribution after IR exposure: 24 h post-irradiation
Procedure: To test this possibility, U2OS cells were pre-treated with S or AS oligonucleotides, exposed to IR, and cell-cycle distributions at 24 h post-irradiation were determined.

hChk2 = assay: IR-dependent phosphorylation of hChk2 (immunoblot); type: cell-based, human; conditions: U2OS
From the text: Recent findings point toward ATM as a critical upstream regulator of the activity of the checkpoint kinase, hChk2, in IR-damaged cells (Ahn et al., Cancer Res. 60:5934-5936 (2000); Melchionna et al., Nat. Cell Biol. 2:762-765 (2000)). To determine whether ATX was also involved in hChk2 activation, the effect of AS oligonucleotide treatment on the IR-dependent phosphorylation of hChk2 was examined. […] Moreover, the differential effects of AS treatment on p53 expression versus hChk2 activation argue against the possibility that AS exposure leads to nonspecific inhibition of checkpoint signaling responses to IR-induced DNA damage.

ATX [4] = assay: ATX protein level in oligonucleotide-treated cells (immunoblot); type: cell-based, human; conditions: U2OS

Compound: O=c1[nH]cc(F)c(=O)[nH]1 [5-FU, 5-fluorouracil, reference compound]
- p53 Ser-15 phosphorylation (p53; U2OS treated with the drug): not accompanied by an increase in Ser-15 phosphorylation
- p53 expression (p53; U2OS treated with the drug): increased p53 expression to levels similar to those observed in UV-irradiated cells

Compound: COC[C@H]1OC(=O)c2coc3c2[C@@]1(C)C1=C(C3=O)[C@@H]2CCC(=O)[C@@]2(C)C[C@H]1OC(C)=O [wortmannin]
- IC50 (ATX [1]): 10 to 100 nM

Compound: 5′-GAGACAGGAGGGAGCTTGCT-3′ (all phosphorothioate, sugars by position and methylation of C not given here) [S oligonucleotide, reference compound]
- reduction of basal level of colony outgrowth (basal clonogenic activity) (U2OS cells [2]): 25%
- cell-cycle distribution after IR exposure (U2OS cells [3]): accumulated in both G1 and G2/M phases

Compound: 5′-AGCAAGCTCCCTCCTGTCTC-3′ (phosphorothioate backbone, further chemistry not given here) [AS oligonucleotide, antisense phosphorothioate oligonucleotide complementary to ATX nucleotides 210-229]
- level of p53 induction by 5-FU (p53; AS-treated U2OS versus S-treated): identical to that observed in their S-treated counterparts
- stoichiometric increase in Ser-15 phosphorylation triggered by UV-induced stress (p53; U2OS pretreated with proteasome inhibitor LLnV): effectively blocked
- phosphorylation and stabilization of p53 induced by IR exposure (p53; U2OS, IR): reduced both the phosphorylation and stabilization of p53
- Ser-15 phosphorylation and p53 protein accumulation in UV-damaged cells (p53; U2OS, UV): severely impaired
- IR-dependent phosphorylation of hChk2 (hChk2): retained the ability to phosphorylate hChk2
- expression levels of control proteins ATM and PLC-γ1 (ATX [4]; immunoblot): no significant change
- reduction in ATX protein (ATX [4]; over 10 independent trials): 50-90%
- sensitivity to suppressive effects of IR and UV on clonogenic survival (U2OS cells [2]; IR (FIG. 2C) and UV): significantly more sensitive
- reduction of basal level of colony outgrowth (basal clonogenic activity) (U2OS cells [2]): 75%
- cell-cycle distribution after IR exposure (U2OS cells [3]): arrested primarily in G2/M phase
- cell-cycle distribution in the absence of IR (U2OS cells [3]; compared to S oligonucleotide-treated cells): reduction in the percentage of G1 phase cells, and a concomitant accumulation of G2/M phase cells
